Patent publication US20080063610A1, “Use of Beta-Homocyclocitral as an Agent Against Bad Breath” (SYMRISE GMBH & CO. KG, priority 2004, published 2008)
Converted amounts (≈) assume the structure as drawn.

Assays:
Type in all cases: cell-based
[1] = test system: fresh morning saliva; assay: In-vitro test to reduce bad breath (liquid medium inoculated with fresh morning saliva, sniffed by a panel)
Method: In-Vitro Test to Reduce Bad Breath
The test is based on the work of Goldberg and Rosenberg (Production of Oral Malodor in an in vitro System, S. Goldberg and M. Rosenberg, pp.143 -150, in: Bad Breath—A multidisciplinary Approach, Eds: D. van Steenberghe, M. Rosenberg, Leuven University Press, 1996) and has been adapted to improve reproducibility.
A sterile liquid medium inoculated with fresh morning saliva is incubated for a few days at 37° C. and then sniffed by a panel of testers.
An intensive odour characteristic of bad breath has formed. Uninoculated controls have only a faint odour of the medium.
As a control for the tests, Triclosan® (5-chloro-2-(2,4-dichlorophenoxy)phenol) was added to inoculated samples in a concentration of 0.05%.

[2] = test system: Escherichia coli; assay: Minimum inhibiting concentration, serial-dilution test
Method: (§1) Determination of the Minimum Inhibiting Concentration 5 The minimum inhibiting concentration (MIC) of beta-homocyclocitral was determined in a serial-dilution test against various bacteria.

[3] = test system: Fusobacterium nucleatum; assay: as above
Method: as §1

[4] = test system: Porphyromonas gingivalis; assay: as above
Method: as §1

[5] = test system: Prevotella intermedia; assay: as above
Method: as §1

[6] = test system: Pseudomonas aeruginosa; assay: as above
Method: as §1

[7] = test system: Staphylococcus aureus; assay: as above
Method: as §1

[8] = test system: Streptococcus mutans; assay: as above
Method: as §1

[9] = test system: Veilonella parvula; assay: as above
Method: as §1

[10] = test system: total number of bacteria in the samples of saliva; assay: Further test: total number of bacteria in samples of saliva; conditions: concentration of 1000 ppm
[11] = test system: Pseudomonas aruginosa; assay: Further tests at 1000 ppm; conditions: concentration of 1000 ppm
[12] = test system: Escherichia coli; assay: Further tests at 1000 ppm; conditions: concentration of 1000 ppm
[13] = 0.05% added to inoculated samples at the start of the test, 37° C., a few days

SMILES: CC1=C(CC=O)C(C)(C)CCC1 [beta-homocyclocitral, 2,6,6-trimethyl-1-cyclohexene-1-acetaldehyde]
- odour after the incubation period ([1]; 0.01% added to inoculated samples): a changed characteristic odour or a mixed odour was discernible in some cases
- odour after the incubation period ([1]; 0.025% added to inoculated samples): no odour
- odour after the incubation period [1, 13]: a slight characteristic odour is discernible
- odour at sensory assessment ([1]; 0.05% added to the inoculated medium just one hour before the sensory assessment): unpleasant mixed odour of bad breath and a faint beta-homocyclocitral note
- minimum effective concentration ([1]; no odour after the incubation period): 0.025%
- MIC [2]: > 1000 µg/mL
- Type [2]: No action up to 1000 ppm
- Type [3]: bactericidal action
- MIC ([3]; bactericidal): 250 µg/mL (≈ 1500 µM)
- MIC [4]: 125 µg/mL (≈ 752 µM)
- MIC ([5]; bactericidal): 250 µg/mL (≈ 1500 µM)
- MIC ([5]; bacteriostatic): 125 µg/mL (≈ 752 µM)
- MIC [6]: > 1000 µg/mL
- Type [6]: No action up to 1000 ppm
- MIC [7]: 500 µg/mL (≈ 3010 µM)
- Type [8]: bactericidal action
- MIC ([8]; bactericidal): 500 µg/mL (≈ 3010 µM)
- Type [9]: bactericidal action
- MIC ([9]; bactericidal): 500 µg/mL (≈ 3010 µM)
- reduction of the total number of bacteria in samples of saliva [10]: no significant reduction
- reduction with regard to Pseudomonas aruginosa [11]: no significant reduction
- reduction with regard to Escherichia coli [12]: no significant reduction

SMILES: Oc1cc(Cl)ccc1Oc1ccc(Cl)cc1Cl [Triclosan®, 5-chloro-2-(2,4-dichlorophenoxy)phenol, reference compound]
- odour after the incubation period [1, 13]: same faint odour of medium as the uninoculated samples
